# Reference: publication PMC13252604, “First Generation Proteolysis Targeting Chimeras (PROTACs) for the Treatment of Progeria” (Advanced Science, 2026)
# Molecular target: T1, ternary complex between progerin, compound 2 and CRBN (Mus musculus, UniProt P48678+Q8C7D2, DEL608-657)
# T1 construct: endogenous in cells; host or cells: Lmna G609G/G609G mouse fibroblasts
# Experiment: Co-immunoprecipitation of ternary complex (anti-CRBN IP, anti-progerin blot)
# Type: binding
# Conditions: 5 µM, 6 h, Lmna^G609G/G609G fibroblasts
# Excerpt: (A) Input IP .LM123L T-!=> V,!=>
# MW Veh Cpd 2 Cpd 2 Veh !!!!!"#$$#B -45665 T4--8 -4;?,;
# Progerin !!!!!E#)*+,- ,V4:-Ise::::: :etpoooomX,?4?V:enst9mmqo,848; !?#$B?CDEFCBG+I-+G.BLG+ […]
# !!!!!*+,- 84;66L<-,VI9e::::::esnnsmqmXV4-;VL<-,?:estm9XpoX?4T-?L<-,8 FFFFF0BNNB$ :em9Xn […]
# IgG heavy chain Iqep:m:p ne:qmppo:m :esmpqtmpn FFFFFSB#T89:I9em:m […]
# 50- Iqe9mt:: :eoX9ppnnm :eoqpq9s9p X9YF8=F>.-B2?E+FE??+E?@BBCA
# FFFFF0BNNB$ rrrFNBF:eqoqs
# Cpd 2 Veh FFFFFSB#T89:rrr […]
# Vehicle .LM123L T-!=>(%C" V,!=> […]
# 50- !!!!!C#' -4TT8VLamin C -4T:T; (%$$-4-:?5T '()*+
# !!!!!E#)*+,- ,V4:-β-Actin ,?4?V ,848; D(%
# 37- !!!!!*+,- 84;66L<-,V V4-;VL<-,? ?4T-?L<-,8 ,-)*+ […]
# Abundance Ratio (log2): Ve h / Cpd 2
# Supporting Figure S2. Ternary complex formation, progerin engagement and global selectivity of compound 2. (A) Progeroid […]/G609G fibroblasts treated with vehicle (0.1% DMSO) or compound 2 (5 µM) were subjected to immunoprecipitation with an anti-CRBN antibody and then immunoblotted with an anti-progerin antibody. Bar graph represents mean±sem of 2 independent experiments. (B) Representative progerin immunoblotting of the soluble fraction of LmnaG609G/G609G cell homogenates treated with […]
# Cells were harvested by trypsin, centrifuged and washed with PBS. […] The mixture was then allowed to incubate for 30min at 37 °C in the dark and samples were finally analysed by FACScalibur (Becton Dickinson) flow cytometer […]
# T1 sequence (P48678 with tags, fused parts or gaps DEL608-657 limits assumed): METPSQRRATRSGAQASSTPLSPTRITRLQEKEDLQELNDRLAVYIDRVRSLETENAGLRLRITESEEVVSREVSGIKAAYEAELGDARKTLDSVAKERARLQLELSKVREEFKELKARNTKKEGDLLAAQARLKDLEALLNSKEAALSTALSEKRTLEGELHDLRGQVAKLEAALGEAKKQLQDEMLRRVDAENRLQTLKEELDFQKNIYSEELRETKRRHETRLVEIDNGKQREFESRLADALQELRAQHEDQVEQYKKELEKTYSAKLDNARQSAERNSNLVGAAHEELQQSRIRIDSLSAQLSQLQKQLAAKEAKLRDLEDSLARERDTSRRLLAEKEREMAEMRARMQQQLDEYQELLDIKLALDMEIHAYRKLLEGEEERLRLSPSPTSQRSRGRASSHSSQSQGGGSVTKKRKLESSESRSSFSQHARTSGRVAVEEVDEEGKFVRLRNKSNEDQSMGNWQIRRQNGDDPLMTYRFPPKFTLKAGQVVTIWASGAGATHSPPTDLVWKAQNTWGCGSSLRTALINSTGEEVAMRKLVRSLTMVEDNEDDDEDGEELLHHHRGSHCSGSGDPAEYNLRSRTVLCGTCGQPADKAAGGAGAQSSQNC
# T1 sequence (Q8C7D2 whole entry, stated change not applied): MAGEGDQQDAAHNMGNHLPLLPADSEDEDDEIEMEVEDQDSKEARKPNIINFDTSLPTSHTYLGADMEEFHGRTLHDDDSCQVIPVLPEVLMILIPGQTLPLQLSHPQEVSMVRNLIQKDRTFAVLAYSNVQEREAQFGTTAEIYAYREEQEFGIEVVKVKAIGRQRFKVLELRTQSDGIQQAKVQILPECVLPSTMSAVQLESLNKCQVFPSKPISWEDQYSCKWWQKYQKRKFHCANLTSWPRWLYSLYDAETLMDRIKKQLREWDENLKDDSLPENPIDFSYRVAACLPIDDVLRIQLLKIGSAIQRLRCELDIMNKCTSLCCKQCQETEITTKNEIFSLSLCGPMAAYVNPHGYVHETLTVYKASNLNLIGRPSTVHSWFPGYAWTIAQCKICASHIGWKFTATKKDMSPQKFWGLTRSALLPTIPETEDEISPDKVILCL
# T1 sequence (Q3U1J4 whole entry partner): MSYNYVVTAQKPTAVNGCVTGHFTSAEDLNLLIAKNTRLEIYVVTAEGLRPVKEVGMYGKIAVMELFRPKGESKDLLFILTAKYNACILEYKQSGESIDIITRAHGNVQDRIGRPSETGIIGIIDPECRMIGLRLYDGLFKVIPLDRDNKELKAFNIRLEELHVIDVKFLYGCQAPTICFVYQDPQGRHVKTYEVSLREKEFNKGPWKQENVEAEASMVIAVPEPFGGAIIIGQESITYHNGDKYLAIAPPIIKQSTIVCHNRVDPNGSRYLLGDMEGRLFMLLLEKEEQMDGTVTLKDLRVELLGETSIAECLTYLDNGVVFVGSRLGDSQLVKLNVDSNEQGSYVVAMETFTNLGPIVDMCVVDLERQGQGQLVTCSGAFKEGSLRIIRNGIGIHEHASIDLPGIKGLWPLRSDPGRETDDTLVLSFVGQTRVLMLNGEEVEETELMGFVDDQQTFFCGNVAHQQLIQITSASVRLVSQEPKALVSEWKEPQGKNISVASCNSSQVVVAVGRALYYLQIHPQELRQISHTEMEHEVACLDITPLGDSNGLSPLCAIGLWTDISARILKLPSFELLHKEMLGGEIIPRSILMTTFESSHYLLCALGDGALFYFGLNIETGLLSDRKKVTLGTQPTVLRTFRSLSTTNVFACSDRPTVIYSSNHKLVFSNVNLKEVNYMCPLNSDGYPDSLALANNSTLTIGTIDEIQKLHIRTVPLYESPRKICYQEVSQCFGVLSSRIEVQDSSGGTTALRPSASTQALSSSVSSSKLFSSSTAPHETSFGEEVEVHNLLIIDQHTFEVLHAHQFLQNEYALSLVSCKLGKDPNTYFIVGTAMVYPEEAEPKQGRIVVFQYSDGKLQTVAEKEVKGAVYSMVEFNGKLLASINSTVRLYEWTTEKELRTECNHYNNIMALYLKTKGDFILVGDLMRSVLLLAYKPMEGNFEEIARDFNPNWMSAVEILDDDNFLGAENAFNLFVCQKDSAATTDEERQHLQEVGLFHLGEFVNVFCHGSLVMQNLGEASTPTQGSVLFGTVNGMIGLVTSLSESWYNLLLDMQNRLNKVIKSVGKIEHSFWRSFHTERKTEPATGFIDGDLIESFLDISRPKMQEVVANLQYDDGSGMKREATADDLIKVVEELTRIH
smiles,measurement,value
CC1(C)Oc2cc3oc(=O)ccc3cc2C[C@@H]1OC(=O)CCCCCNc1cccc2c1C(=O)N(C1CCC(=O)NC1=O)C2=O (stereo partly shown) [compound 2],formation of ternary complex with progerin and CRBN by immunoprecipitation,confirmed the formation of the ternary complex
